From patent publication US5334761A, “Cationic lipids” (Life Technologies, Inc., priority 1992, dated 1994)

Columns and labels:
some cell lines [1] = conditions: cited from earlier work; for transfection / delivery of nucleic acids: lipid aggregates or liposomes; for transfection efficiency relative to DOTMA: some cell lines
some cell lines [2] = conditions: cited from earlier work
NIH-3T3 cells = experiment: CAT transient transfection; assay type: cell-based, mouse; conditions: for CAT ACTIVITY: 2 μg pSV2CAT, 6 h OPTI MEM serum-free; for DNA transfection (in words): NIH-3T3
Experimental: (§1) A one-to-one mixture (by weight) of the desired lipid and dioleylphosphatidyl ethanolamine was prepared in CHCl3. The CHCl3 was removed on the rotary evaporator to obtain a thin film of lipid mixture. The mixture was hydrated with enough water to obtain approximately 1.25 mg of lipid per ml of solution. The solution was passed through a microfluidizer twice and diluted to 1 mg/ml. The liposome formulation was then filtered through a 0.2 μ filter. Compound 8 was also formulated without DOPE either by sonication at 1 mg/ml in water or by dissolving a dried lipid film with ethanol and then adding water to give a final concentration of 2.5 mg/ml. Ethanol was 10% of that volume. In some instances, this was further diluted with water to 1 mg/ml, 4% ethanol.
(§2) Baby hamster kidney (BHK-21) , COS-7, HeLa-S3 cells, and normal human fibroblasts isolated from newborn foreskin dermis were grown in Dulbecco's-modified Eagle's medium (DMEM) containing 10% fetal bovine serum (FBS), 2 mM L-glutamine (gln), 0.1 mM MEM nonessential amino acids (NEAA), 100 U/ml penicillin, and 100 μg/ml streptomycin. NIH-3T3 cells were grown in DMEM containing 10% calf serum (CS), 2 mMgln, 0.1 mM NEAA 100 U/ml penicillin, and 100 μg/ml streptomycin. PC12 cells were grown in DMEMcontaining 10% horse serum, 5% FBS, 2 mM gln, 0 1 mMNEAA, 100 U/ml penicillin and 100 μ/ml streptomycin. Jurkat cells (human lymphoid cell line) were grown in RPMI-1640 supplemented with 10% FBS, 2mML-glutamine, 100 U/ml penicillin, and 100 μg/ml streptomycin. Human keratinocytes were isolated from newborn foreskin epidermis and cultured in Keratinocyte Growth Medium (Clonetics, San Diego, Ca.). All cell lines were maintained in a humidified incubator with a 5% CO2 atmosphere at 37° C.
(§3) pSV2CAT (5.0 Kb) was described previously (Gorman, C. M. et al. (1982) Mol. Cell. Biol. 2:1044). pCMVCAT (5.0 Kb) was also described previously (Foecking M. K. and Hofstetter, H. (1986) Gene 45:101). Plasmid DNA was purified by isopycnic centrifugation in CsCl/EtBr gradients after recovery by alkaline lysis (Maniatis, T. et al. (1982) in Molecular Cloning: A Laboratory Manual, Cold Spring Harbor Laboratory, Cold Spring Harbor, N.Y., pp. 90-91).
(§4) For transient transfection of pSV2CAT DNA or pCMVCAT DNA, cells were plated in 6-well tissue culture dishes (35 mm wells) and incubated overnight to approximately 60% confluency. To transfect cells in one well, 1-2 μg of pSV2CAT DNA or pCMVCAT DNA was diluted in 100 μl Opti-MEM I. Cationic lipids were diluted separately in another 100 μl aliquot of Opti-MEM I. The two solutions were then mixed in a polystyrene tube, incubated for 10-15 min at room temperature to allow the formation of a DNA-liposome complex, and diluted to one ml by adding 0.8 ml Opti-MEM I or DMEM containing 5% fetal bovine serum (FBS), 2 mMgln, 0.1 mMNEAA, and lacking antibiotics. The cells were washed once with Opti-MEM I or serum-free DMEM, and the DNA-liposome complex was added directly to the cells. After a six hr incubation at 37° C., the transfection complexes were removed and two ml of DMEM containing 10% FBS, 2 mMgln, 0.2 mMNEAA, 100 U/ml penicillin, and 100 μg/ml streptomycin, was added to each well. Note: human keratinocytes were cultured and transfected in Keratinocyte Growth Medium. Cells were incubated for an additional 48 hrs and lysed in situ by freeze-thawing once or twice in 300 μl 0.1M Tris-HC1, pH 7.8-8.0 containing 0 1% Triton X-100. Cell lysates were assayed for CAT activity.
(§5) Cell lysates were assayed for CAT activity as described by Neumann et al. (1987) BioTechniques 5:444 using [^14 C]-butyryl coenzyme A (New England Nuclear, Boston, Mass.). The enzyme reactions were incubated for 2 hrs at 37° C., overlayed with 3.0 ml Econofluor (New England Nuclear) and then incubated for an additional 2 hrs to allow diffusion of the acetylated chloramphenicol into the scintillation fluid. CAT activity was determined by measuring radioactivity in a liquid scintillation counter. […]

[3] = system: normal human keratinocytes; experiment: CAT transient transfection; assay type: cell-based; conditions: for CAT ACTIVITY: 2 μg pSV2CAT, 6 h, 50 μl of 300 μl assayed; for DNA transfection (in words): keratinocytes
Experimental: as §1, §2, §3, §4, §5

[4] = % protein (toxicity estimate, Bradford) after transfection; assay type: cell-based, human; conditions: human, keratinocytes, 2 μg pSV2CAT, 6 h
Experimental: as §1
as §2, with “C. […]” for “C.”
(§6) The "% protein" column indicates the relative amount of protein in the sample tested for CAT activity and therefore provides a way to estimate toxicity of the compounds being tested. […] Protein was measured using a commercially available Bradford protein assay (BioRad Laboratories, Richmond, Ca.). […]

Jurkat cells = experiment: CAT transient transfection; assay type: cell-based, human; conditions: pSV2CAT, 6 h OPTIMEM
Experimental: as §1, §2, §3
(§7) For transient nuclear expression of pSV2CAT or pCMVCAT in Jurkat cells, cells were washed with Opti-MEM I or serum-free RPMI 1640 containing 2 mM gln and plated in six-well plates at a density of 3×10^6 cells per well in 0.8 ml Opti-MEM I or RPMI 1640. For each transfection, 5 μg pSV2CAT DNA or 2 μg pCMVCAT DNA was diluted in 100 μl Opti-MEM I. Lipids were diluted separately in another 100 μl aliquot of Opti-MEMI. The two solutions were then mixed in a polystyrene tube and incubated for 10-15 min at room temperature. The DNA-liposome complex was added to the cell suspensions and incubated 6 hours at 37° C., after which 4 ml growth medium were added per well (RPMI-1640; 10% FBS). Phorbol myristate acetate (Sigma Chemical Co., St. Louis, Mo.) and phytohemagglutinin (Sigma) were also added to a final concentration of 50 ng/ml and 1 μg/ml, respectively, to activate the cells. Cells were harvested at approximately 48 hours post-transfection by centrifugation. Cell lysates were prepared by resuspending cell pellets at 0° C. in 0.1 M Tris-HC1 pH 8.0 containing 0.1% Triton X-100 and freeze-thawing once. Cell lysates were cleared by centrifugation and assayed for CAT activity.
as §5

[5] = % protein (toxicity estimate, Bradford) after transfection; assay type: cell-based, human; conditions: human, jurkat cells, pSV2CAT, 6 h OPTIMEM
Experimental: as §1, §2, §7
The "% protein" column indicates the relative amount of protein in the sample tested for CAT activity and therefore provides a way to estimate toxicity of the compounds being tested. The "CAT Activity" column indicates the relative transfection effectiveness of the lipid formulation in the various cell lines. The control sample was a cell culture grown under similar conditions as those that were transfected, but with no DNA or cationic lipid added. Protein was measured using a commercially available Bradford protein assay (BioRad Laboratories, Richmond, Ca.).
Jurkat cells (3 × 10^6 cells) were transfected in OPTIMEM with
μg of pSV2CAT DNA for 6 hours.
DNA-lipid complexes were made in OPTIMEM. Jurkat cells (3 × 10^
cells) were transfected in RPMI1640 with 2 μg of pCMVCAT DNA for 6

[6] = as above; assay type: cell-based, mouse; conditions: mouse, nih-3t3 cells; 16 μg lipid; 2 μg pSV2CAT; 6 h OPTI MEM serum-free
Experimental: as §1
(§8) Baby hamster kidney (BHK-21) , COS-7, HeLa-S3 cells, and normal human fibroblasts isolated from newborn foreskin dermis were grown in Dulbecco's-modified Eagle's medium (DMEM) containing 10% fetal bovine serum (FBS), 2 mM L-glutamine (gln), 0.1 mM MEM nonessential amino acids (NEAA), 100 U/ml penicillin, and 100 μg/ml streptomycin. […]
as §6

HeLa-S3 cells = experiment: CAT transient transfection; assay type: cell-based; conditions: for CAT ACTIVITY: 2 μg pSV2CAT, 6 h
Experimental: as §1, §2, §3, §4, §5

[7] = % protein (toxicity estimate, Bradford) after transfection; assay type: cell-based; conditions: human, hela-s3 cells, 2 μg pSV2CAT
Experimental: as §1, §8, §6

Compound: CCCCCCCCCCCCCCCCCCN(CCCCCCCCCCCCCCCCCC)C(=O)CNC(=O)C(CCCNCCCN)NCCCN (stereo not drawn) [DOGS, 5-carboxyspermylglycine dioctadecylamide]
- transfection / delivery of nucleic acids (some cell lines [1]): efficient transfection
- transfection efficiency relative to DOTMA (some cell lines [1]): more efficient
- toxicity relative to DOTMA (some cell lines [2]): less toxic

Compound: CCCCCCCCCCCCCCCC(=O)OCC(COP(=O)(O)OCCNC(=O)C(CCCNCCCN)NCCCN)OC(=O)CCCCCCCCCCCCCCC (stereo not drawn) [DPPES, dipalmitoylphosphatidylethanolamine 5-carboxyspermylamide]
- transfection / delivery of nucleic acids (some cell lines [1]): efficient transfection
- transfection efficiency relative to DOTMA (some cell lines [1]): more efficient
- toxicity relative to DOTMA (some cell lines [2]): less toxic

Compound: CCCCCCCC/C=C\CCCCCCCCOCC(C[N+](C)(C)CCNCCCN)OCCCCCCCC/C=C\CCCCCCCC (stereo not drawn) [Compound 4, 1-Propanaminium, N-[2-[(3-aminopropyl)amino]ethyl]-N,N-dimethyl-2,3-bis(9-octadecenyloxy)-, bromide]
- CAT ACTIVITY (NIH-3T3 cells; 24 μg lipid): 3,114 CPM
- CAT ACTIVITY ([3]; 40 μg lipid): 20,038 CPM
- DNA transfection (in words) [3]: effective
- viability at 6 h ([4]; 40 μg lipid): 41%
- CAT ACTIVITY (Jurkat cells; 20 μg lipid): 2252 CPM/150 μl
- CAT ACTIVITY (Jurkat cells; 30 μg lipid): 820 CPM/150 μl
- viability at 6 h ([5]; 20 μg lipid): 93%
- viability at 6 h ([5]; 30 μg lipid): 100%

Compound: CC(C)CCC[C@@H](C)[C@H]1CC[C@H]2[C@@H]3CC=C4C[C@@H](OC(=O)NCCN(C)C)CC[C@]4(C)[C@H]3CC[C@]12C [DC-Chol]
- transfection efficiency relative to DOTMA (some cell lines [1]): more efficient transfection
- toxicity relative to DOTMA (some cell lines [2]): lower toxicity

Compound: CCCCCCCC/C=C\CCCCCCCCOCC(C[N+](C)(C)CCNCCCNCCCCNCCCN)OCCCCCCCC/C=C\CCCCCCCC (stereo not drawn) [Compound 5, 1-Propanaminium,N-{2-[[3-[[4-[(3-aminopropyl)amino]butyl]-amino]propyl]amino]ethyl}-n,n-dimethyl-2,3-bis-(9-octadecenyloxy)-, bromide]
- DNA transfection (in words) [3]: effective
- CAT ACTIVITY (Jurkat cells; 20 μg lipid): 1170 CPM/150 μl
- viability at 6 h ([5]; 20 μg lipid): 100%

Compound: CCCCCCCC/C=C\CCCCCCCCOCC(C[N+](C)(C)C)OCCCCCCCC/C=C\CCCCCCCC (stereo not drawn) [DOTMA]
- transfection / delivery of nucleic acids (some cell lines [1]): efficient delivery of nucleic acids to some types of cells

Compound: CCCCCCCC/C=C\CCCCCCCCOCC(C[N+](C)(C)CCBr)OCCCCCCCC/C=C\CCCCCCCC (stereo not drawn) [Compound 3, 1-Propanaminium, N-[2-(2-bromo)ethyl]-N,N-dimethyl-2,3-bis(9-octadecenyloxy)-,bromide]
- CAT ACTIVITY (NIH-3T3 cells; 16 μg lipid): 6,074 CPM
- DNA transfection (in words) (NIH-3T3 cells): good activity
- viability at 6 h [6]: 35%
- CAT ACTIVITY (HeLa-S3 cells; 6 μg lipid, DMEM, 5% FBS): 78,798 CPM
- CAT ACTIVITY (HeLa-S3 cells; 12 μg lipid, OPTIMEM I, 0% FBS): 29,400 CPM
- DNA transfection (in words) (HeLa-S3 cells; HeLa-S3, presence or absence of serum): good activity
- CAT ACTIVITY ([3]; 10 μg lipid): 10,598 CPM
- viability at 6 h ([4]; 10 μg lipid): 42%
- CAT ACTIVITY (Jurkat cells; 30 μg lipid): 3008 CPM/150 μl
- viability at 6 h ([5]; 30 μg lipid): 97%
- viability at 6 h ([7]; 6 μg lipid, DMEM, 5% FBS): 54%
- viability at 6 h ([7]; 12 μg lipid, OPTIMEM I, 0% FBS): 43%

Compound: CCCCCCCC/C=C\CCCCCCCCOCC(C[N+](C)(C)CCN)OCCCCCCCC/C=C\CCCCCCCC (stereo not drawn) [Compound 2, 1-Propanaminium, N-(2-amino)ethyl-N,N-dimethyl-2,3-bis(9-octadecenyloxy)-bromide]
- DNA transfection (in words) (NIH-3T3 cells): good activity
